In patent US9839669B2 (priority 2011, dated 2017):
Where two headings read alike, the source gives them in different places.

What was measured:
[1] = test system: HSV-1; type: cell-based, Herpes simplex viruses type 1; details: Aciclovir 1.5 mmol
[2] = test system: Vero cells
[3] = test system: BGM cells

Nc1nc2c(ncn2COCCO)c(=O)[nH]1 [Aciclovir]
100: Average relative inhibition ([1]; average over virus dilutions) | Relative inhibition ([1]; virus dilution 10^−5.0) | Relative inhibition ([1]; virus dilution 10^−5.48) | Relative inhibition ([1]; virus dilution 10^−5.95)
0: Number of plaque, Mean value ([1]; virus dilution 10^−5.0) | Relative infectiosity ([1]; virus dilution 10^−5.0) | Number of plaque, Mean value ([1]; virus dilution 10^−5.48) | Relative infectiosity ([1]; virus dilution 10^−5.48) | Number of plaque, Mean value ([1]; virus dilution 10^−5.95) | Relative infectiosity ([1]; virus dilution 10^−5.95)
negative: cytotoxicity [2] | cytotoxicity [3]
